Test results as given in patent US10717711B2, “Amino quinazolines as kinase inhibitors” (GlaxoSmithKline Intellectual Property Development Limited, priority 2011, dated 2020).
Where “and” joins values, the source holds several entries; their conditions need not be identical. Equal values may be shown once.

Biological target: T1, RIPK2 (full length FLAG His tagged RIPK2; RIP2 kinase) (Homo sapiens, UniProt O43353)
T1 construct: Full length FLAG His tagged RIPK2 was purified from a Baculovirus expression system; FLAG (N); 6His (N); made in house; host or cells: Spodoptera frugiperda (Sf9) insect cells, baculovirus
Assay: Fluorescent polarization based binding assay at the ATP binding pocket of RIPK2
Conditions: competition with fluorescently labeled ATP competitive ligand (5 nM); mean of a minimum of 2 experiments; approximate values; read-out: mean pIC50 (RIP2 kinase inhibition) (converted)
Excerpt: A fluorescent polarization based binding assay was developed to quantitate interaction of novel test compounds at the ATP binding pocket of RIPK2, by competition with a fluorescently labeled ATP competitive ligand. Full length FLAG His tagged RIPK2 was purified from a Baculovirus expression system and was used at a final assay concentration of twice the KDapparent. A fluorescent labeled ligand (5-({[2-({[3-({4-[(5-hydroxy-2-methylphenyl)amino]-2-pyrimidinyl}amino)phenyl]carbonyl}amino)ethyl] amino}carbonyl)-2-(6-hydroxy-3-oxo-3H-xanthen-9-yl)benzoic acid, prepared as described in WO2011/120025) was used at a final assay concentration of 5 nM. Both the enzyme and ligand were prepared in solutions in 50 mM HEPES pH7.5, 150 mM NaCl, 10 mM MgCl2, 1 mM DTT, and 1 mM CHAPS. Test compounds were prepared in 100% DMSO and 100 nL was dispensed to individual wells of a multiwell plate. Next, 5 ul RIPK2 was added to the test compounds at twice the final assay concentration, and incubated at rt for 10 min. Following the incubation, 5 ul of the fluorescent labeled ligand solution, was added to each reaction, at twice the final assay concentration, and incubated at rt for at least 10 min. Finally, samples were read on an instrument capable of measuring fluorescent polarization. Test compound inhibition was expressed as percent (%) inhibition of internal assay controls.
For concentration/dose response experiments, normalized data were fit and pIC50S determined using conventional techniques. The pIC50S are averaged to determine a mean value, for a minimum of 2 experiments.
Full-length human RIPK2 (receptor-interacting serine-threonine kinase 2) cDNA was purchased from Invitrogen (Carlsbad, Calif., USA, Clone ID:IOH6368, RIPK2-pENTR 221). Gateway® LR cloning was used to site-specifically recombine RIPK2 downstream to an N-terminal FLAG-6His contained within the destination vector pDEST8-FLAG-His6 according to the protocol described by Invitrogen. Transfection into Spodoptera frugiperda (Sf9) insect cells was performed using Cellfectin® (Invitrogen), according to the manufacturer's protocol.
Sf9 cells were grown in Excell 420 (SAFC Biosciences, Lenexa, Kans., US; Andover, Hampshire UK) growth media at 27° C., 80 rpm in shake flask until of a sufficient volume to inoculate a bioreactor. […] The insect cells were infected with Baculovirus at a multiplicity of infection (MOI) of 12.7. The cultivation was continued for a 43 hour expression phase. The infected cells were removed from the growth media by centrifugation at 2500 g using a Viafuge (Carr) continuous centrifuge at a flow rate of 80 litres/hour. The cell pellet was immediately frozen and subsequently supplied for purification.
Purification Procedure I: 9.83×10^10 Insect cells were re-suspended in 1.4 L lysis buffer (50 mM Tris (pH 8.0), 150 mM NaCl, 0.5 mM NaF, 0.1% Triton X-100, 1 mL/litre Protease Inhibitor Cocktail Set III (available from EMD Group; CalBiochem/Merck Biosciences, Gibbstown, N.J., US; Damstadt, Germany) and processed by dounce homogenization on ice. The suspension was then clarified by centrifugation at 47,900 g for 2 h, at 4° C. The lysate was decanted from the insoluble pellet and loaded at a linear flow rate of 16 cm/h onto a 55 mL FLAG-M2 affinity column (2.6×10.4 cm) that had been pre-equilibrated with 10 column volumes buffer A (50 mM Tris (pH 8.0), 150 mM NaCl, 0.5 mM NaF, 1 mL/litre Protease Inhibitor Cocktail Set III). […]

T1 sequence (O43353 whole entry): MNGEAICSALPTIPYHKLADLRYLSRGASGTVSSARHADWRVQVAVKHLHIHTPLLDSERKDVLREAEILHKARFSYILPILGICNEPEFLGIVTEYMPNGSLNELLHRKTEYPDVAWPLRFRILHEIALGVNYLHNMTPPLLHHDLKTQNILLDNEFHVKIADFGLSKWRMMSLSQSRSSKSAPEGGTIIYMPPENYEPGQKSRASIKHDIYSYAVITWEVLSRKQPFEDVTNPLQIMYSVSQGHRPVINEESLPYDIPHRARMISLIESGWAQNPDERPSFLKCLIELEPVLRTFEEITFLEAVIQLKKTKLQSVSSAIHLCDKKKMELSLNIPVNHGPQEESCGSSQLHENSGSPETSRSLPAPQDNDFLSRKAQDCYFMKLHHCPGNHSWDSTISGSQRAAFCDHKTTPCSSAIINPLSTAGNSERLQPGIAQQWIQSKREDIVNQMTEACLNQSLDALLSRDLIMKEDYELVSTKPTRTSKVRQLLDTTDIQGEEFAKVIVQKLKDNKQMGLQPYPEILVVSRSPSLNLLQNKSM

Row | IC50 | Structure (SMILES)
1 | ~31.6 nM and 1 to 100 nM | CC(C)(C)S(=O)(=O)c1ccc2ncnc(Nc3ccc4scnc4c3)c2c1 [Example 4, N-1,3-benzothiazol-5-yl-6-[(1,1-dimethylethyl)sulfonyl]-4-quinazolinamine]
2 | 1 to 100 nM | CC(C)S(=O)(=O)c1ccc2ncnc(Nc3ccc4scnc4c3)c2c1 [Example 6, N-1,3-benzothiazol-5-yl-6-[(1-methylethyl)sulfonyl]-4-quinazolinamine]
3 | ~3.16 nM and 1 to 100 nM | COc1cc2ncnc(Nc3ccc4scnc4c3)c2cc1S(=O)(=O)C(C)(C)C [Example 16, N-(6-(tert-butylsulfonyl)-7-methoxyquinazolin-4-yl)benzo[d]thiazol-5-amine]
4 | 1 to 100 nM | CC(C)(C)S(=O)(=O)c1cc2c(Nc3ccc4scnc4c3)ncnc2cc1OCCO [Example 21, 2-((4-(benzo[d]thiazol-5-ylamino)-6-(tert-butylsulfonyl)quinazolin-7-yl)oxy)ethanol]
5 | 1 to 100 nM | CC(C)(C)S(=O)(=O)c1cc2c(Nc3ccc4scnc4c3)ncnc2cc1OCC(F)(F)F [Example 23, N-(6-(tert-butylsulfonyl)-7-(2,2,2-trifluoroethoxy)quinazolin-4-yl)benzo[d]thiazol-5-amine]
